What was measured:
[1] = system: CT5.3-hTERT colon cancer-associated fibroblasts; assay: TGF-β-mediated growth inhibition in CT5.3-hTERT cells after cryopreservation (SRB assay, cell counter); assay type: cell-based; details: control group (routine culture, not cryopreserved); TGF-β 1 ng/ml for 1 week; n=3
Procedure: Immortalized CT5.3-hTERT colon cancer-associated fibroblasts have been used to evaluate cellular function following cryopreservation with two different cryopreservation media: • 1) a 10:90 (% V/V) mixture of dimethylsulfoxide (DMSO) and fetal bovine serum (FBS), as known in the art; and • 2) a propylene glycol-based DMSO-free cryopreservation medium as described in Table 1 (hereafter referred to as “PCM”).
Briefly, early passage cells were cultured in routine culture medium (Dulbecco's Modified Eagle Medium (DMEM) containing 10% FBS, antibiotics and an antifungal product) at 37° C. in a humidified atmosphere with 5% CO2. Semi-confluent cells were harvested by trypsinization and cell concentration was assessed using the trypan blue exclusion method. […]
The cells of each group were treated with recombinant TGF-β (1 ng/ml) for 1 week. At the end of the experiment, cell concentration was measured using the sulforhodamine B (SRB) assay and an automated cell counter (trypan blue exclusion), respectively. […] Protein content was assessed by the bicinchoninic acid (BCA) test and concentrations were normalized, thus allowing for equal protein load for Western blot analysis. Expression of α-SMA was evaluated using a monoclonal HRP-coupled antibody, directed against this myofibroblast marker. […]

[2] = system: (MSC)-hTERT mesenchymal stem cells; assay: Cryopreservation tests on (MSC)-hTERT mesenchymal stem cells with TGF-β treatment; assay type: cell-based
From the text: It is noted that further cryopreservation tests on (MSC)-hTERT mesenchymal stem cells using the above-mentioned DMSO/FBS and PCM also show similar results for both cryopreservation media.

TGF-β
inhibition of cell proliferation by TGF-β [1]: 79.84+/−4.43 | effect of TGF-β on α-SMA expression [2]: not to alter α-SMA expression

— US9938495B2, “Composition comprising cryopreservation medium and stem cells obtained by slow-freezing” (FERTIPRO N.V., priority 2013, dated 2018)
